From patent US20110178168A1, “COUMARIN COMPOUNDS FOR THE TREATMENT OF CARDIOVASCULAR DISEASES AND A PROCESS FOR PREPARING THE SAME” (priority 2008, published 2011)

Assays:
[1] = target: T1, Calreticulin transacetylase (CRTAase) (Homo sapiens, UniProt P27797); assay: TAase (calreticulin transacetylase) activity; type: biochemical
T1 sequence (P27797 18-417): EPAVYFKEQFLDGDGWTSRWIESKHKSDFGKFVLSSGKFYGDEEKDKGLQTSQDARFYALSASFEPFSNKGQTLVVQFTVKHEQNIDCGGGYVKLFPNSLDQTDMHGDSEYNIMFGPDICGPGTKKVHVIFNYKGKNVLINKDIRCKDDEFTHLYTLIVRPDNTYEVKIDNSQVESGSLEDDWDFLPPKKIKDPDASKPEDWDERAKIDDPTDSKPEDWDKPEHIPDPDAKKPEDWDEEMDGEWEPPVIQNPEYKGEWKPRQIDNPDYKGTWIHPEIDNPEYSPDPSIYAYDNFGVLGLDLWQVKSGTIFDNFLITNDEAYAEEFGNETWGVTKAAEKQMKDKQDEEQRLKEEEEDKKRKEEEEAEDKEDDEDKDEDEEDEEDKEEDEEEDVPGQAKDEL
Text: (§1) Platelet Nitric Oxide Synthase (NOS) is remakably activated by way of acetylation catalyzed by Calreticulin transacetylase (CRTAase) leading to robust enhancement of NO in platelets. Compounds of Formula I enhance NO in platelets. Due to this activity, these compounds enhance the NOS leading to enhancement of platelet NO which contributes to the antiplatelet action. […] They are effective in causing the inhibition of ADP induced as well as collagen induced platelet aggregation both invitro and exvivo.

platelets [2] = assay: ADP-induced platelet aggregation in vitro (platelet rich plasma); type: cell-based
Text: A. Preparation of Platelet Rich, Plasma for the IN VITRO Studies

platelets [3] = assay: ADP-induced platelet aggregation ex vivo (platelet rich plasma); type: in vivo
Text: C. Preparation of Platelet Rich Plasma for the EX VIVO Studies

[4] = system: intracellular nitric oxide level in platelets; assay: Enhancement of nitric oxide in platelets; type: cell-based
Text: Nitric oxide is known to mediate a number of pharmacological actions such as vasorelaxation, lowereing of blood pressure and inhibition of platelet aggregation. […] The specific acyl group attached to the coumarin derivative is attributed to the enhancement of intracellular nitric oxide level leading to the inhibition of ADP induced platelet aggregation.
as §1

TAase activity (Units) [1]	Structure (SMILES)	ADP-induced platelet aggregation (% inhibition) IN VITRO (platelets [2])	ADP-induced platelet aggregation (% inhibition) EX VIVO (platelets [3]) [%]	Enhancement of nitric oxide (folds) [4]
Nil	COC(=O)C(c1ccccc1Cl)N1CCc2sccc2C1 (centres unmarked)	Nil	65	Nil
Nil	CC(=O)Oc1ccccc1C(=O)O [ASPIRIN, Aspirin]	Nil	55	Nil
